Experimental data from PMC3434693 (Drug and chemical toxicology, 2012).

Tested on: C. elegans N2 Bristol strain
Assay: C. elegans fecundity assay
Format: in vivo, Caenorhabditis elegans
Conditions: estimated concentration threshold, refined threshold-exposure stage; 6–7 days

ECT (C. elegans): 470 to 490 µM
Compound: Cn1c(C(=O)NCCCc2c[nH]c(N)n2)cc(Br)c1Br [DHS, dihydrosventrin]
